How the values were obtained:
[1] = system: Pseudomonas aeruginosa ATCC 27853; experiment: Basic broth adherence assay on coated polyurethane tubes; assay type: cell-based; details: for Inhibition of adherence / antimicrobial effect against Pseudomonas aeruginosa (in words): coated polyurethane tubes compared to uncoated control
Experimental: The antimicrobial effectiveness of the coated samples was subjected to different durations of DI water extraction by basic broth adherence assay. For each chlorhexidine/fatty acid salt tested, 3 samples of coated tubing were prepared and assayed. To prepare the inoculum, a culture of Pseudomonas aeruginosa ATCC 27853 was used to challenge the coated polyurethane tubes and controls. The negative control used was a length of uncoated polyurethane tube. The challenge microorganism suspension was prepared as follows: approximately three colonies were removed from a secondary working culture plated on Trypticase Soy Agar (TSA) (BD-Falcon) with 5% sheep's blood and added to 10 ml of Trypticase Soy Broth (TSB). The vial was vortexed for approximately 30 seconds and incubated for 4 hours at 37° C. at 100 rpm. Following incubation, the vial was removed and vortexed. The optical density of the organism suspension was read. The inoculum was then diluted in TSB to a concentration of 5×10^4 colony forming units per milliliter (CFU/mL). This concentration was confirmed by the Miles and Misra drop count method.
The basic broth adherence assay was performed in a 96 well micro titer plate. To each well of the micro titer plate containing either a test article or a control, 900 μl of TSB was added. To this, 100 μl of the adjusted inoculum was added (Note: Due to the 1/10 dilution per well, the starting inoculum concentration of each organism was […] for Pseudomonas aeruginosa). The micro titer plates were then sealed via parafilm® around the edges and wrapped in foil to avoid evaporation of liquid and light contact with the samples. The plates were then placed inside a shaker incubator set at 37° C. and 100 rpm for 24 hours. Incubation at 37° C. then continued until the elapse of 7 days, 14 days, and 21 days, respectively, for each of the 3 samples prepared for each chlorhexidine/fatty acid salt.
At the completion of the respective incubation periods, the samples were rinsed, sonicated, the sonicate was plated and adherence was evaluated. More particularly, following incubation, all samples and controls were dip-rinsed twice in phosphate buffered saline (PBS) to remove the surrounding media. After rinsing, test articles were sonicated in micro titer plate wells containing 1 mL of Dey-Engley (DE) neutralizing broth (Difco). The sonication liquid was then serially diluted, and plated onto the surface of DE neutralizing agar. Plates were incubated at 37° C. for 24 to 48 hours and colonies were counted. Recovery counts were recorded as CFU/mL.

[2] = Incorporation of chlorhexidine salts into silicone tubing (swelling impregnation, extraction, HPLC); assay type: physicochemical; details: for Salt content in silicone elastomeric medical article: one day, equivalent mass of chlorhexidine base extracted;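 for Salt content in silicone elastomeric medical article: columns differ by chlorhexidine salt concentration in the impregnation solution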
Experimental: Chlorhexidine diacetate, Chlorhexidine dodecanoate and chlorhexidine palmitate were loaded into silicone tubing by first dissolving the chlorhexidine salt in a 90% THF+10% Methanol solution.
Impregnated chlorhexidine was extracted from the tubing by immersing in an excess of THF to fully swell it and then adding an equal volume of water to extract the chlorhexidine salt. The quantity of chlorhexidine was determined by previously enumerated HPLC method. It is reported below for different concentration impregnation solutions in terms of the equivalent mass of chlorhexidine base extracted: […]

[3] = Rate of release of chlorhexidine/fatty acid salts from coated polyurethane tubes into DI water; assay type: physicochemical; details: for Cumulative release of the chlorhexidine/fatty acid salts from the coated polyurethane tubes: 1 cm coated tube in DI water, 37° C.; for Time by which approximately all of the salt was released from the coated sample: coated polyurethane tube in DI water
Experimental: A solution of each respective chlorhexidine/fatty acid salt was prepared and used to infuse a sample of elastomeric material. To perform the test, individual samples, 8 cm pieces of polyurethane tube containing a colorant, were surface dip coated in respective solutions of the chlorhexidine/fatty acid salts. The solutions were prepared as follows: 8.6 g of Tecoflex (Noveon, Cleveland, Ohio) was dissolved in 174 g of Tetrahydrofuran and methanol. 5.88 g of chlorhexidine acetate, chlorhexidine laurate, chlorhexidine myristate, chlorhexidine palmitate and chlorhexidine stearate were individually dissolved into the polymer-solvent mixture. The samples were immersed into the solvent-polymer-salt mixture and then dried at room temperature, evaporating the solvent. A polymeric coating was produced on the surface of the tubes. The amounts of chlorhexidine/fatty acid salt adhered per cm of the tube was measured (Table 2) by exhaustively extracting the salt and measuring UV absorbance at 253 nm relative to controls: For each of the samples, the rate of release of chlorhexidine/fatty acid salts into an aqueous solution was determined. To perform the rate of release test, 1 cm from each of the coated polyurethane tubes, were submerged in DeIonized (DI) water and incubated at 37° C. for a period of 28 days to determine the rate of release of the salts from the respective 1 cm samples of coated polyurethane tubing. The water was collected and replaced with fresh water after approximately 2 hours. The water was again collected and replaced with fresh water after the first day and every seven days thereafter. The amount of chlorhexidine/fatty acid salt in the collected water was measured with an Agilent 8453 UV-Vis Diode Array Detector with a manual setup using a cuvette w/path length of 1 cm. Chlorhexidine absorbance was read at 253 nm and concentration was calculated via a calibration curve developed using standards of 1, 5, 10, 20, 30, 35, and 40 μg/mL chlorhexidine acetate in DI Water. The percentage of chlorhexidine/fatty acid salt released from the sample into an aqueous media (percent release) was calculated according to the following equation: Percent release=(cumulative release at that time period/initial content)*100.

[4] = system: Candida albicans ATCC 10231; experiment: Zone of inhibition assay with impregnated polyurethane foam discs; assay type: cell-based; details: for Zone of inhibition compared with the other salts (in words): impregnated polyurethane foam, after several daily transfers / over the 9 day assay
Experimental: To evaluate antimicrobial properties of polyurethane foam samples infused with the various chlorhexidine/fatty acid salts, a zone of inhibition assay was performed. In this assay, 1.4% (w/v) of chlorhexidine acetate, chlorhexidine caprate, chlorhexidine laurate, chlorhexidine myristate, chlorhexidine palmitate and chlorhexidine stearate solutions in methanol were prepared. A supply of 8 mm discs were punched out of a sheet of polyurethane foam (Rynel medical grade polyurethane foam) with biopsy punches (Miltex Kai). Several discs were placed in each of six 50 ml centrifuge tubes. Approximately 5 ml of each of the different methanol/chlorhexidine/fatty acid salt solutions was added to each respective tube. The discs were centrifuged for 5 minutes to remove any air bubbles and soaked for 1 hr to infuse the foam discs with the respective chlorhexidine/fatty acid salt. Infused discs were transferred to clean centrifuge tubes and vacuum dried at 25° C. for 24 hrs to remove any residual solvents. Initial concentrations of salts, impregnated into the punches, were determined by dissolving the impregnated foams and by high pressure liquid chromatography (HPLC) analysis using an Agilent Eclipse XDB-CN 3u 4.6×150 mm column with initial mobile phase=65% DI water/0.2% trifluoroacetic acid (TFA): 35% Acetonitrile/0.2% TFA. Chlorhexidine absorbance was read at 253 nm and concentration was calculated via a chlorhexidine calibration curve. […] To perform the zone of inhibition assay on the impregnated polyurethane foam discs, agar plates were prepared by mixing 11 g Mueller-Hinton cation-adjusted broth and 1.5 g agarose in 500 ml DI water. The agar was autoclaved for 15 minutes at 121° C., 15 psi. 10 ml of the still hot, liquid agar was pipetted onto petri dishes. The challenge organism, Candida albicans ATCC 10231, was cultivated in Trypticase soy broth, standard microbiological growth medium (TSB). Sterile cotton swabs were dipped into the undiluted culture and the plated agar was fully inoculated with swabs. The 8 mm polyurethane foam discs were transferred daily to a freshly inoculated agar for 9 days. The zone of inhibition (ZOI) was measured using calipers. Actual ZOI was measured by subtracting the diameter of the foam (when wet) from the zone measured and dividing by 2. The results are presented in Table 6, with a graphical representation of the ZOI in FIG. 2;

[5] = 1% impregnation solution in 90% THF+10% Methanol
[6] = 3% impregnation solution in 90% THF+10% Methanol
[7] = 6% impregnation solution in 90% THF+10% Methanol
[8] = 10% impregnation solution in 90% THF+10% Methanol
[9] = Day 1, daily transfer to fresh agar
[10] = Day 2, daily transfer to fresh agar
[11] = Day 3, daily transfer to fresh agar
[12] = Day 4, daily transfer to fresh agar
[13] = Day 7, daily transfer to fresh agar
[14] = Day 8, daily transfer to fresh agar
[15] = Day 9, daily transfer to fresh agar

Row | Salt content in silicone elastomeric medical article [2, 5] | Salt content in silicone elastomeric medical article [2, 6] | Salt content in silicone elastomeric medical article [2, 7] | Salt content in silicone elastomeric medical article [2, 8] | Cumulative release of the chlorhexidine/fatty acid salts from the coated polyurethane tubes ([3]; Day 1) | Cumulative release of the chlorhexidine/fatty acid salts from the coated polyurethane tubes ([3]; Day 7) | Cumulative release of the chlorhexidine/fatty acid salts from the coated polyurethane tubes ([3]; Day 14) | Cumulative release of the chlorhexidine/fatty acid salts from the coated polyurethane tubes ([3]; Day 21) | Cumulative release of the chlorhexidine/fatty acid salts from the coated polyurethane tubes ([3]; Day 28) | Time by which approximately all of the salt was released from the coated sample [3] | SMILES | Log10 reduction of adhered Pseudomonas aeruginosa onto the surface of coated polyurethane tubes ([1]; 7 days) | Log10 reduction of adhered Pseudomonas aeruginosa onto the surface of coated polyurethane tubes ([1]; 14 days) | Log10 reduction of adhered Pseudomonas aeruginosa onto the surface of coated polyurethane tubes ([1]; 21 days) | ZOI produced by impregnated polyurethane foam punches against Candida albicans [4, 9] | ZOI produced by impregnated polyurethane foam punches against Candida albicans [4, 10] | ZOI produced by impregnated polyurethane foam punches against Candida albicans [4, 11] | ZOI produced by impregnated polyurethane foam punches against Candida albicans [4, 12] | ZOI produced by impregnated polyurethane foam punches against Candida albicans [4, 13] | ZOI produced by impregnated polyurethane foam punches against Candida albicans [4, 14] | ZOI produced by impregnated polyurethane foam punches against Candida albicans [4, 15] | other results
1 | 249 µg/cm | 408 µg/cm | 526 µg/cm | 614 µg/cm | 62 g | 145 g | 165 g | 167 g | 167 g | ≤ 14 days | CCCCCCCCCCCC(=O)O.NC(=NCCCCCCN=C(N)N=C(N)Nc1ccc(Cl)cc1)N=C(N)Nc1ccc(Cl)cc1 [Chlorhexidine Laurate, chlorhexidine dilaurate] | 7 | 0 | 0 | 27 mm | 31 mm | 32 mm | 27 mm | 23 mm | 31 mm | 29 mm | Inhibition of adherence / antimicrobial effect against Pseudomonas aeruginosa (in words) [1]: inhibition was not apparent at 14 days or thereafter; Absorption into silicone tubing compared with the other salts (in words) ([2]; silicone tubing, 90% THF+10% Methanol): absorbed at much higher concentrations than the other salts; Zone of inhibition compared with the other salts (in words) [4]: relatively largest ZOI
2 | 262 µg/cm | 395 µg/cm | 374 µg/cm | 439 µg/cm | 155 g | 222 g | 224 g | 224 g | 224 g | ≤ 7 days | CC(=O)O.CC(=O)O.NC(=N\CCCCCC/N=C(N)/N=C(\N)Nc1ccc(Cl)cc1)/N=C(\N)Nc1ccc(Cl)cc1 [Chlorhexidine Acetate, chlorhexidine diacetate, reference compound] | 5 | 0 | 0 | 12 mm | 11 mm | 14 mm | 8 mm | 8 mm | 12 mm | 12 mm | Inhibition of adherence / antimicrobial effect against Pseudomonas aeruginosa (in words) ([1]; listed as chlorhexidine acetate): inhibition was not apparent at 14 days or thereafter; Inhibition of adherence / antimicrobial effect against Pseudomonas aeruginosa (in words) ([1]; listed as chlorhexidine diacetate): not able to provide an antimicrobial effect against Pseudomonas aeruginosa after 7 days; Percent release of the initial salt concentration from the coated sample ([3]; within 1 day (FIG. 1)): approximately 70%; Zone of inhibition compared with the other salts (in words) [4]: zones of inhibition that were smaller

Source: patent US20100069854A1, “Elastomeric Devices Containing Chlorhexidine/Fatty Acid Salts Made From Fatty Acids of 12 to 18 Carbons” (priority 2008, published 2010)
